From US5001118A, “Method for preventing senescence and increasing bone mass” (priority 1986, dated 1991)

Key:
osteoporosis = test: Activity on bones found by the inventors (general statement)
rats = test: Lifelong administration to rats (general statement on bone); format: in vivo, rat
Source text: One aspect of the present invention has been perfected based on the above findings. […] These findings are literally epochal in the light of the fact that the conventional pharmaceutical compositions for adjusting bone metabolism is found to be only capable of restoring bones having abnormality due to morbidity near to normality.

[1] = lifelong administration to rats

In the case of C=C1CC[C@H](O)C/C1=C/C=C1\CCC[C@]2(C)[C@@H]([C@H](C)CCC(O)C(C)(C)O)CC[C@@H]12 (stereo partly shown) [24,25-(OH)2 -D3, 24,25-dihydroxy cholecalciferol], the activity on osteoporosis (osteoporosis) is reported as “activity of preventing osteoporosis”, the bone quality (rats; [1]) is reported as “without affecting the bone quality” and the bone volume (rats; [1]) is reported as “increasing bone volume”. For the same compound, the “bone strength vs non-administered normal mammals” value (rats; normal mammal, extension of the lifelong rat experiment) was “clearly surpassing the average bone strength of non-administered normal mammals”.
